Assay results from article PMC8457056, “Remodeling of the Fibrillation Pathway of α‐Synuclein by Interaction with Antimicrobial Peptide LL‐III” (Chemistry (Weinheim an Der Bergstrasse, Germany), 2021).

Test system: neuronal SH‐SY5Y cells stably expressing an α‐Syn‐GFP fusion protein
Test: PFF-induced α-Syn-GFP aggregation in SH-SY5Y cells (structured-illumination microscopy)
Assay type: cell-based
Conditions: 1 μM LL-III 1 h before PFF; for cells with α‐Syn‐GFP aggregates: 5 independent experiments, at least 150 cells per condition
Procedure: Finally, to test the anti‐aggregation activity of LL‐III in a cellular model, we used the α‐Syn pre‐formed fibril (PFF) model, which involves conversion of recombinant monomeric α‐Syn protein into fibrillar seeds that were added to neuronal SH‐SY5Y cells stably expressing an α‐Syn‐GFP fusion protein.[32, 33] In brief, untreated cells expressed soluble α‐Syn‐GFP that was rather homogenously distributed throughout the cells (Figure 3, left panel). Treatment of cells with PFF seeds caused aggregation of α‐Syn‐GFP, reflected by the formation of GFP‐positive foci (Figure 3, middle and right panel). These α‐Syn‐GFP aggregates could be visualized already 24 h after PFF treatment by fluorescence super‐resolution structured illumination microscopy.
Figure 3 LL‐III decreases PFF‐induced α‐Syn aggregation in neuronal cells. SH‐SY5Y cells stably expressing α‐Syn‐GFP were pre‐treated without or with LL‐III 1 h before adding PFF seeds to induce α‐Syn aggregation. A. α‐Syn was visualized by structured‐illumination microscopy 24 h and 48 h after PFF treatment. Green: α‐Syn (GFP), blue: nuclei (DAPI). B. Quantification of cells with α‐Syn aggregates was based on 5 independent experiments. In total, at least 150 cells were counted per condition. Data were processed by a Kolmogorov‐Smirnov test for Gaussian distribution followed by an unpaired two‐tailed Student's t‐test. *** p≤0.001.
LL‐III was pre‐incubated with α‐Syn‐GFP‐expressing SH‐SY5Y cells at a concentration of 1 μM one hour before PFF treatment to allow cellular uptake of LL‐III. The number of cells with α‐Syn‐GFP aggregates was quantified 24 h and 48 h after PFF seeding. […]
µM) and following the anisotropy changes of the Trp residue. […] The anisotropy was evaluated at 354 nm which corresponds to the maximum of emission of the free peptide. […]
Far-UV circular dichroism (CD) spectra were recorded by using a Jasco J- 715 spectropolarimeter from Jasco Cor-poration (Tokyo, Japan). […] A blank spectrum of 20 mM sodium acetate buffer, pH 5.0, was recorded and subtracted from all the samples spectra. […]

NH2-VNWKKIL GKIIKVVK -CONH2 [LL‐III]
cells with α‐Syn‐GFP aggregates (24 h after PFF seeding, without LL-III 48 %): 30% | change in number of cells with aggregates (24 h and 48 h): significantly decreased | cells with α‐Syn‐GFP aggregates (48 h after PFF seeding, without LL-III 54 %): 36%
